Consider 11 compounds from patent US20060009493A1, “Indolinone hydrazides as c-Met inhibitors” (Sugen, Inc., priority 2003, published 2006).

A word on the pIC50: it is −log10 of the IC50, conventionally taken in molar units. Low values mean a large IC50, high ones a small IC50.

pIC50: −log10 of the molar value.

For this assay, the target named is T1, GST fusion protein containing the Met kinase domain (Homo sapiens, UniProt P08581).
T1 construct: Purified GST fusion protein containing the Met kinase domain, Sugen, Inc
T1 sequence (P08581 1078-1345 limits assumed): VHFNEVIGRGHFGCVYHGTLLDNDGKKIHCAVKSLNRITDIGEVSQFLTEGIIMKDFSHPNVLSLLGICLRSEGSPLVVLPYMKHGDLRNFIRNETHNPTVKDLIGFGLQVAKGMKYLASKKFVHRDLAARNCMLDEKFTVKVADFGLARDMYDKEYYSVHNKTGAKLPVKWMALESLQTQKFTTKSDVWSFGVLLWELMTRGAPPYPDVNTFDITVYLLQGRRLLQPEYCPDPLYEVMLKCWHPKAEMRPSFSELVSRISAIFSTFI
Briefly: MET Transphosphorylation Assay (ELISA, poly(Glu,Tyr) 4:1 substrate). Type of assay: biochemical. As to conditions: met transphosphorylation of poly(glutamic acid:tyrosine 4:1) substrate; two values in a cell separated by '/'. The gist of the method:
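Poly(Glu-Tyr)-coated wells received the GST-Met kinase domain (10 ng/well) with compound in DMSO for 15 minutes. The reaction was started with ATP/MnCl2 in HEPES pH 7.5 buffer with vanadate, run 5 minutes, and stopped with EDTA. Phosphotyrosine was detected by anti-pTyr antibody, HRP secondary and ABTS/H2O2.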
For orientation: ELISA stands for enzyme-linked immunosorbent assay.
Take `CC(C(=O)N/N=C1\C(=O)Nc2ccc(O)c(Cl)c21)c1ccc(F)cc1` (centres unmarked) [II-105, 2-(4-Fluoro-phenyl)-propionic acid [(3Z)-4-chloro-5-hydroxy-2-oxo-1,2-dihydro-indol-3-ylidene)-hydrazide]: the pIC50 is 6.38.

With `COc1ccc(CC(=O)N/N=C2\C(=O)Nc3c(Cl)ccc(Cl)c32)cc1C#N` [II-106, (3-Cyano-4-methoxy-phenyl)-acetic acid [(3Z)-4,7-dichloro-2-oxo-1,2-dihydro-indol-3-ylidene]-hydrazide], the pIC50 is < 4.70.

`COc1ccc(CC(=O)N/N=C2\C(=O)Nc3c(C)ccc(C)c32)cc1C#N` [II-107, (3-Cyano-4-methoxy-phenyl)-acetic acid [(3Z)-4,7-dimethyl-2-oxo-1,2-dihydro-indol-3-ylidene]-hydrazide]: the pIC50 is < 4.70.

`N#Cc1cc(CC(=O)N/N=C2\C(=O)Nc3ccccc32)ccc1O` [II-108, (3-Cyano-4-hydroxy-phenyl)-acetic acid [(3Z)-2-oxo-1,2-dihydro-indol-3-ylidene)-hydrazide]: the pIC50 was 4.92.

In turn, `N#Cc1cc(CC(=O)N/N=C2\C(=O)Nc3c(Cl)ccc(Cl)c32)ccc1O` [II-109, (3-Cyano-4-hydroxy-phenyl)-acetic acid [(3Z)4,7-dichloro-2-oxo-1,2-dihydro-indol-3-ylidene)-hydrazide] had a pIC50 of 5.79.

For `COc1ccc(CC(=O)N/N=C2\C(=O)Nc3ccc(C(=O)O)c(Cl)c32)cc1C#N` [II-110, (3Z)-4-Chloro-3-{[2-(3-cyano-4-methoxy-phenyl)-acetyl]-hydrazono}-2-oxo-2,3-dihydro-1H-indole-5-carboxylic acid], the pIC50 was < 4.70.

For the compound `N#Cc1cc(CC(=O)N/N=C2\C(=O)Nc3ccc(C(=O)O)c(Cl)c32)ccc1O` [II-111, (3Z)-4-Chloro-3-{[2-(3-cyano-4-hydroxy-phenyl)-acetyl]-hydrazono}-2-oxo-2,3-dihydro-1H-indole-5-carboxylic acid], the pIC50 was 5.48.

As for `Cc1ccc(C)c2c1NC(=O)/C2=N\NC(=O)Cc1ccc(O)c(C#N)c1` [II-112, (3-Cyano-4-hydroxy-phenyl)-acetic acid [(3Z)-4,7-dimethyl-2-oxo-1,2-dihydro-indol-3-ylidene]-hydrazide], the pIC50 is 5.60.

In turn, `COc1cc(Cl)c2c(c1Cl)/C(=N/NC(=O)C(C)c1ccc(O)cc1)C(=O)N2` (centres unmarked) [II-113, 2-(4-Hydroxy-phenyl)-propionic acid [(3Z)4,7-dichloro-5-methoxy-2-oxo-1,2-dihydro-indol-3-ylidene)-hydrazide] showed a pIC50 of 7.33.

Regarding `Cc1ccc(Cl)c2c1NC(=O)/C2=N\NC(=O)C(C)c1ccc(F)cc1` (centres unmarked) [II-114, 2-(4-Fluoro-phenyl)-propionic acid [(3Z)4-chloro-7-methyl-2-oxo-1,2-dihydro-indol-3-ylidene]-hydrazide], the pIC50 was 6.70.

As to “(3-Chloro-4-hydroxy-phenyl)-acetic acid [(3Z)-4,7-dimethyl-2-oxo-1,2-dihydro-indol-3-ylidene]-hydrazide [II-48]”, the pIC50 was 7.70.
